# According to the OligoGym collection:
# Where “and” joins values, the source holds several entries; their conditions need not be identical. Equal values may be shown once. After the bases stand the sugars from the 5' end (letter, count) and the backbone: PS all phosphorothioate, else s phosphorothioate and o phosphodiester by linkage. Methylation of C is not given here. e = 2'-O-(2-methoxyethyl) (MOE); k = constrained ethyl (cEt); d = 2'-deoxy (DNA)
# Molecular target: KRAS
# Details: ASO
Sequence,"target mRNA inhibition (A431, 2 µM)",further results
"AATGTCACAAGCAGAA (sugars k3 d10 k3, PS)",49%,
"ACCATTCAAAGTTCAC (sugars k3 d9 k3 e1, PS)",42%,
"ATGCTGTGAAACTCTC (sugars kkkdddddddddkeke, PS)",2%,
"TGTTTATGCAATGTTA (sugars kkddddddddddkeke, PS)",23%,
"ATCTTTTAATGTCACA (sugars k3 d10 k3, PS)",58%,"target mRNA inhibition (A431, 0.037 µM): 74%; target mRNA inhibition (A431, 5 µM): 97% and 96%; target mRNA inhibition (NCI-H460, 0.037 µM): 65.3%"
"ACCAGTGTTAAGAGAA (sugars kkddddddddkekekk, PS)",52%,
"GGGAATTACAAGTATT (sugars k3 d10 k3, PS)",28%,
"ATAATAATCCCCATTT (sugars k3 d10 k3, PS)",4%,
"GATGGTGTAACATAGG (sugars k3 d10 k3, PS)",60%,"target mRNA inhibition (A431, 0.185 µM): 8%; target mRNA inhibition (A431, 0.556 µM): 30%; target mRNA inhibition (A431, 1.667 µM): 56%; target mRNA inhibition (A431, 5 µM): 68%"
"TCAAAGTTCACATAAA (sugars k3 d10 k3, PS)",19%,
"TGCTATAATAATCCCC (sugars k3 d10 k3, PS)",43%,
"AGATTGTGCTGAGCTT (sugars k3 d9 k3 e1, PS)",42%,
"GTTTATGCAATGTTAA (sugars kddddddddddkekek, PS)",37%,
"ATTACTTTTTGACAAA (sugars k3 d10 k3, PS)",0%,
"TGCAATGTTAATTTAA (sugars k3 d10 k3, PS)",13%,
"TGTTTATGCAATGTTA (sugars k3 d10 k3, PS)",,"target mRNA inhibition (A431, 0.125 µM): 49% and 53%; target mRNA inhibition (A431, 0.185 µM): 21% and 0%; target mRNA inhibition (A431, 0.556 µM): 40% and 27%; target mRNA inhibition (A431, 1.667 µM): 53%; target mRNA inhibition (A431, 5 µM): 79% and 68%; target mRNA inhibition (NCI-H460, 0.037 µM): 41%"
"TTGATTTGTCAGCAGG (sugars kkdddddddddkekek, PS)",23% and 22%,
"ATGGTGTAACATAGGT (sugars kkkdddddddddkeke, PS)",43%,
"GGTGTAACATAGGTTA (sugars k3 d10 k3, PS)",55% and 50%,"target mRNA inhibition (A431, 0.185 µM): 7%; target mRNA inhibition (A431, 0.556 µM): 29%; target mRNA inhibition (A431, 1.667 µM): 47%; target mRNA inhibition (A431, 5 µM): 67%"
"ATGGTGTAACATAGGT (sugars kkddddddddddkeke, PS)",65%,"target mRNA inhibition (A431, 0.185 µM): 22%; target mRNA inhibition (A431, 0.556 µM): 39%; target mRNA inhibition (A431, 1.667 µM): 60%; target mRNA inhibition (A431, 5 µM): 69%"
"TGCTGTGAAACTCTCT (sugars kkdddddddddkekek, PS)",0%,
"TCCATTTATGTGACTA (sugars kkkddddddddkekek, PS)",0%,

Sequence,"target mRNA inhibition (A431, 2 µM)",further results
"ACTAATAGCAGTGGAA (sugars k3 d10 k3, PS)",27%,
"CTCTATGAAAGCTCAA (sugars k3 d10 k3, PS)",39%,
"ATCCATTTATGTGACT (sugars k3 d10 k3, PS)",38%,
"ATGCTGTGAAACTCTC (sugars kkddddddddddkeke, PS)",35%,
"AATAGTTTCCATTGCC (sugars k3 d10 k3, PS)",56%,
"AGTGATTAGGTCAAAT (sugars kkddddddddkekekk, PS)",46%,
"CAGACTTGAAAAGTGT (sugars k3 d10 k3, PS)",24%,
"TAATCCATTTATGTGA (sugars k3 d10 k3, PS)",31%,
"CATTTCTGATGTGACT (sugars k3 d10 k3, PS)",32%,
"AGTGTGACTCAGTTAA (sugars kkddddddddddkeke, PS)",41%,
"GGAGTCTTTATAGTAA (sugars kkddddddddkekekk, PS)",25%,
"GTCCAGTGATACTTTC (sugars k3 d9 k3 e1, PS)",48%,
"TCTTGTTGAGCTATCC (sugars k3 d10 k3, PS)",56%,"target mRNA inhibition (A431, 0.185 µM): 28% and 3%; target mRNA inhibition (A431, 0.556 µM): 38% and 29%; target mRNA inhibition (A431, 1.667 µM): 61% and 40%; target mRNA inhibition (A431, 5 µM): 82% and 64%"
"TTACTTATGCAGAGAA (sugars k3 d10 k3, PS)",46%,
"GTTTATGCAATGTTAA (sugars kkddddddddkekekk, PS)",57%,"target mRNA inhibition (A431, 0.185 µM): 27%; target mRNA inhibition (A431, 0.556 µM): 46%; target mRNA inhibition (A431, 1.667 µM): 45%; target mRNA inhibition (A431, 5 µM): 79%"
"GATTGTGCTGAGCTTG (sugars kkdddddddddkekek, PS)",45%,
"CCATTCAAAGTTCACA (sugars k3 d9 k3 e1, PS)",41%,
"GTCCAGTGATACTTTC (sugars kkddddddddkekekk, PS)",22%,
"TGTTTAAAAAAAAAAT (sugars k3 d10 k3, PS)",2%,
"AAGGTAAAAGCTAACA (sugars k3 d10 k3, PS)",21%,
"TCCATTTATGTGACTA (sugars kkkddddddddkdkdk, PS)",16%,
